Reference: patent publication US20240245789A1, “POLYMER CONJUGATES OF DRUGS TARGETING 5-HT AND OTHER RECEPTORS IN THE CENTRAL NERVOUS SYSTEM (CNS) THAT ALSO TARGETS RECEPTORS OUTSIDE OF THE CNS” (Arbormentis LLC, priority 2021, published 2024)

Tests used:
NMDAR1 receptor = experiment: protein expression of NMDAR1 in the liver of NAFLD mice
CCL-2 = experiment: mRNA expression of CCL2 in HepG2 cells (in vitro NAFLD model); details: PA:OA mix
TNF-α = experiment: mRNA expression of TNF-α in HepG2 cells (in vitro NAFLD model); details: PA:OA mix
[1] = system: mice fed with standard diet; details: 0.05 mg/kg daily

Compound | expression of the NMDAR1 receptor in the liver (NMDAR1 receptor) | mRNA expression of CCL-2 (CCL-2) | mRNA expression of TNF-α (TNF-α) | signs of hepatic damage (hepatotoxicity) [1]
CN(C)CCc1c[nH]c2cccc(O)c12 [psilocin] | counteracting its overexpression induced by steatosis | reduction in the mRNA expression | reduction in the mRNA expression | –
CN(C)CCc1c[nH]c2cccc(OP(=O)(O)O)c12 [psilocybin] | – | – | – | no signs of hepatic damage were observed
